According to US20260263468A1 (Fundación Instituto de Investigación Sanitaria Fundación …, priority 2023, published 2026):

Legend:
[1] = mice, dipyridamole 25 mg/Kg/day with tenofovir; cited from earlier work
C2C12 [2] = experiment: Nucleotide concentration by HPLC during C2C12 differentiation; format: cell-based
Procedure: Supernatant and cell lysate are collected every day. Cells were lysated with a homemade buffer (1 mM phenylmethylsulfonyl fluoride, 1 mM protease inhibitor cocktail, 1 mM sodium orthovanadate, 1 mM sodium fluoride and 1 mM β-glicerophospate) and supernatant was used directly. A heat shock step was done at 98° C. for 2 min, and to avoid adenosine degradation 1 μM EHNA was added at the time of heating. All samples were centrifuged at 13000 g for 10 min at 4° C. and supernatants were collected and stored at −80° C. until use. Inosine, adenosine, AMP, ADP and ATP concentrations were determined with high performance liquid chromatography (HPLC) using a liquid chromatograph with a reversed phase column (Agilent 1100 Series Liquid Chromatography) and an UV detector set at 254 nm. Buffer composed of 0.1 mol/L KH2PO4 (pH 7.5) and 18% acetonitrile was run at 1.5 ml/min for 20 min. Compounds were identified and quantified by their retention times and peak areas of known standards, calibrated by spectrophotometry. […] The results have been corrected and expressed as mean±SEM. All results were calculated as a percentage of controls without differentiation state.

C2C12 myoblast cell line = experiment: Western blot of C2C12 under pro-inflammatory conditions with/without dipyridamole
Procedure: Western blot was performed as described above.
Protein concentration was determined by BCA. 4 μg for cells and 40-50 μg for tissue samples of protein was subjected to 6-15% SDS-PAGE and transferred to a nitrocellulose membrane. Membranes were blocked with 3% BSA in Tris-buffered saline containing 0.1% Tween-20 (TBS-T). After that, the membranes were incubated overnight at 4° C. with the primary antibodies for A2A, A2B, MHC (Thermo Fisher Scientific, Waltham, USA), AMPK, pAMPK (Thr172), p21, p16 (Cell signaling, Danvers, EEUU) (1:1000 each) and Pax-7 (Developmental Studies Hybridoma Bank, Houston, EEUU) (1:500 each).

[3] = tested on: K/B×N serum transfer-induced arthritis; experiment: Tissues weight at collection, acute model of inflammation; format: in vivo, C57BL/6J mice
Procedure: Data collected for absolute weight are correlated with mouse weight to obtain relative weight (*indicates differences with the sham group and $ indicates differences with the arthritic group). WAT, white adipose tissue; BAT, brown adipose tissue. Values are presented as mean±SEM. […]
Mice were weighted weekly. Development of arthritis was assessed daily, and the severity of arthritis was assessed in each paw on a 4-point scale defined as follows: 0=normal appearance, 1=localized edema/erythema over one surface of the paw, 2=edema/erythema involving more than one surface of the paw, and 3-4=marked edema/erythema involving the whole paw. Scores of all 4 paws were added for a composite score. All motor activity tests were performed prior to serum inoculation and at the highest point of inflammation. Mice were euthanized on day 16 for acute inflammation model or 30 days for Inflammation resolved model. A representative photo of body structure and muscle of pawn were taken on this day. Gastronemius was collected for protein and RNA extraction. Tibialis and soleus were included for freeze histology following the indications of H. Meng (see references in ref. 44). Bones were prepared for micro-computed tomography (microCT) and histology. Blood was drawn and serum was isolated for measurement of inflammatory cytokines and C-reactive protein (CPR).

C2C12 [4] = conditions: dipyridamole 1 μM ± PSB-603 1 μM
Procedure: (§1) Cells were lysed with RIPA buffer and protein concentration was determined by BCA. […] Variations in intensity were expressed as % of basal (day 0) and expressed as mean±SEM. All results were calculated as a percentage of non-differentiated controls to minimize the intrinsic variation among different experiments.

[5] = tested on: K/B×N serum transfer-induced arthritis; experiment: Atrogenes mRNA expression (RT-PCR) in gastrocnemius; format: in vivo, C57BL/6J mice; conditions: RA+Dipy
Procedure: Total RNA was isolated from crushed frozen gastrocnemius using TRIzol reagent (Roche Diagnostics, Barcelona, Spain) following manufacturer's instructions. A total of 1 μg RNA was reverse transcribed with a High Capacity cDNA Reverse Transcription Kit (Applied Biosystems, San Francisco, CA, USA) at […], including the following reagents, in the same reaction: RNase Inhibitor 1 U/μL, Random Hexamers […], MgCl2 5 mM, PCR buffer II 1× and dNTPs 1 mM. Relative quantification of gene expression was performed via real-time RT-PCR on a Step One Plus (Applied Biosystems) with Power UP SYBR Green MasterMix according to the manufacturer's protocol. The primers were provided from Sigma-Aldrich according to the primer bank at https://pga.mgh.harvard.edu/primerbank/. Gene expression levels were calculated with the ΔΔCt method.

C2C12 [6] = experiment: Western blot of adenosine receptors, P2X7 and Panx-1 during differentiation; format: cell-based; conditions: 1 μM
Procedure: as §1
The expression of adenosine receptors, P2X7 receptor and Panx-1 channel was analyzed during myoblast differentiation.

[7] = tested on: K/B×N serum transfer-induced arthritis; experiment: Cytokine and chemokine array in gastronemius muscle; format: in vivo, C57BL/6J mice; conditions: acute model, RA + Dipy
Procedure: The cytokines concentration was measured by fluorescence using GenePix 4000B following manufacture protocol for serum and frozen samples. Serum samples were used at 2-fold sample dilution. Frozen gastronemius were crushed using a mortar and a pestle cooled with liquid nitrogen. Next, gastronemius were homogenized in a sonicator and the protein isolated in the supernatant quantified with BCA assay. We used 100 μL (1 mg/ml) of total gastronemius protein for cytokine and chemokine array assay.

[8] = tested on: K/B×N serum transfer-induced arthritis; experiment: Histological analysis of tibialis anterior (H&E, ATPase, picrosirius red, oil red O)
Procedure: Analysis of tibialis tissue structure by Hematoxylin and eosin (H&E) staining was performed. Frozen samples were sectioned at 10 μm. For staining and subsequent processing by image segmentation we followed the indications established by Liu et al (53). Briefly, sections were brought from −80° C. to room temperature and immediately immersed in methanol for 30 min to improve fixation and stained with Hematoxylin and eosin. Image analysis was performed with ImagePro 2.2 using the Muscle Morphometry plugin following Liu's protocol.
H&E staining was performed on frozen tibialis anterior (TA). Frozen samples were section at 10 μm. For staining and subsequent processing by image segmentation we followed the indications established by Liu et al (53). Briefly, sections were brought from −80° C. to room temperature and immediately immersed in methanol for 30 min to improve fixation and stained with hematoxylin and eosin. Image analysis of cross-sectional area (CSA) was performed with ImagePro 2.2 using the Muscle Morphometry plugin following Liu's protocol.
ATPase staining was performed in TA 10 μM cross-sections as previously described (2). Briefly, cross-sections were incubated 45 min in 0.1 M glycine/NaCl buffer pH 9.4 with 0.75 M CaCl2 and 5 mg ATP (Sigma-Aldrich). After rinsed in distilled water, sections were incubated in 2% cobalt chloride, and then immersed in dilute (1/10) ammonium chloride to develop type 1 (white) and type 2 (black) fibers. After dehydration, sections were mounted with DPX mounting medium (VWR International Ltd., Lutterworth, UK). The quantification of the fiber types was performed using the Image J software package 1.49v (NIH, Bethesda, MD, USA).
Picrosirius Red staining was performed in TA to visualized tissue fibrosis. Slides were air-drayed for 30 min at room temperature and fixed in PFA 4% 30 min. Next, the sections were incubated for 90 min in picrosirius red solution (Polysciences) and immersed immediately in 0.1M HCl solution (Polysciences) for 1 min. The sections were washed 2 times in H2O, dehydrated in serial dilutions of alcohol and mounted with DPX. Bright field and polarized light images were taken. The quantification of infiltration of collagen I were performed using the Image J software package 1.49v (NIH, Bethesda, MD, USA) on polarized images.
To visualize triglycerides infiltration in the muscle, serial frozen TA 10 μm cross-sections were thaw and air dry and fixed in PFA 4% for 1 h before oil red O staining. […] Then we isolate the oil red staining retained in muscle with 200 μL of isopropanol in agitation to quantify the fat infiltrated in every muscle. The oil red released was read from 75 μL samples in a 96-well plate by Tecan Spark 20M in duplicate at 500 nm.

[9] = tested on: K/B×N serum transfer-induced arthritis; experiment: Western blot of gastronemius, acute model
[10] = healthy mice, dipyridamole alone, Sham 100±1%

## OCCN(CCO)c1nc(N2CCCCC2)c2nc(N(CCO)CCO)nc(N3CCCCC3)c2n1 [dipyridamole, 2,6-bis(Diethanolamino)-4,8-dipiperidinopyrimido[5,4-d]pyrimidine]
[1]
  Body weight (tenofovir-induced loss): recovered
C2C12 [2]; 1 μM each, day 4, control 14.7±0.5
  Extracellular ATP: did not modify
C2C12 [2]; 1 μM, day 4, control 10.87±0.73
  Intracellular adenosine: 13.76 ± 1.13 nM
C2C12 [2]; 1 μM, day 4, control 11.07±0.54
  Intracellular inosine: 14.17 ± 1.75 nM
C2C12 [2]; 1 μM, day 4, control 12.10±0.73
  Intracellular AMP: 18.53 ± 1.13 nM
C2C12 [2]; 1 μM, day 4 of differentiation, control 11.6±0.81
  Extracellular adenosine: 17.33 ± 0.47 nM
C2C12 myoblast cell line; 24 h of differentiation
  CREB expression (vs 100% basal): 361.5±68.8%
C2C12 myoblast cell line; cytokine/LPS ± dipyridamole 1 μM, day 4, control 222.7±23.9%
  AMPK activation: did not increase AMPK levels
C2C12 myoblast cell line; day 4, dipyridamole combined with IL-6, IL-6 alone 107±5.8%
  PKAα expression: 245.3±34.3%
C2C12 myoblast cell line; day 4, dipyridamole combined with INFγ, INFγ alone 101.7±3.7%
  PKAα expression: 245.3±34.3%
C2C12 myoblast cell line; day 4, control 213.9±21.6%
  PKAα expression: 245.3±34.3%
C2C12 myoblast cell line; dipyridamole 1 μM alone
  Myogenesis (PAX7, MHC): did not modulate myogenesis
[3]; RA + Dipy
  BAT, Absolute weight: 0.157 ± 0.005 g
  EDL, Absolute weight: 0.010 ± 0.013 g
  Gastronemius, Absolute weight: 0.123 ± 0.004 g
  Quadriceps, Absolute weight: 0.15 ± 0.01 g
  Soleus, Absolute weight: 0.008 ± 0.001 g
  Tibialis, Absolute weight: 0.056 ± 0.004 g
  WAT, Absolute weight: 0.198 ± 0.018 g
[3]; RA mice + Dipy 25 mg/kg/day
  Bodyweight, Absolute weight: 22.12 ± 0.18 g
[3]; healthy mice, Dipy alone
  BAT, Absolute weight: 0.16 ± 0.003 g
  EDL, Absolute weight: 0.011 ± 0.008 g
  Gastronemius, Absolute weight: 0.174 ± 0.007 g
  Soleus, Absolute weight: 0.011 ± 0.002 g
  Tibialis, Absolute weight: 0.08 ± 0.009 g
  WAT, Absolute weight: 0.22 ± 0.02 g
[3]; healthy mice, Dipy alone 25 mg/kg/day
  Bodyweight, Absolute weight: 24.26 ± 1.72 g
C2C12 [4]; 2% HS, day 1
  PAX7 protein expression: 198±24%
C2C12 [4]; day 1
  MHC protein expression: 95±13%
C2C12 [4]; day 3
  Myf5 protein expression: 79.48±31%
C2C12 [4]; day 4
  PKAα protein expression: 358±156%
  pAMPK expression: 284±79.8%
  pCREB: 399.6±119.8%
[5]; RA 5.40±1.37, Sham 1.94±0.33
  Atrogin-1 mRNA expression: 0.29±0.09
[5]; RA 8.71±2.75, Sham 1.60±0.35
  Murf1 mRNA expression: 1.60±0.22
C2C12 [6]; compared to control
  A3 receptor protein expression: did not change
C2C12 [6]; day 4
  P2X7 protein expression (% of basal): 202±46%
[7]
  Muscle IL-1α: 3.5 ± 0.2 pg/mL
  Muscle IL-1β: 13.9 ± 1.9 $$ pg/ml
  Muscle IL-2: 8 ± 2.8 pg/mL
  Muscle IL-3: 1 ± 0.2 pg/mL
  Muscle IL-4: 23 ± 1.9 pg/mL
  Muscle IL-5: 5.5 ± 0.8 pg/mL
  Muscle IL-6: 6.9 ± 0.6 **/$ pg/ml
  Muscle IL-9: 13.1 ± 2.5 pg/mL
  Muscle IL-10: 32.5 ± 2.3 **/ $ pg/ml
  Muscle IL-13: 11.3 ± 0.9 pg/mL
  Muscle IL-17: 7 ± 1.3 pg/mL
  Muscle INFγ: 48.7 ± 4.8 */$ pg/ml
  Muscle KC (CXCL1): 1.2 ± 0.7 pg/mL
  Muscle M-CSF: 11.8 ± 1.6 pg/mL
  Muscle RANTES: 4.7 ± 0.5 pg/mL
  Muscle TNF-α: 24.6 ± 1.2 pg/mL
  Muscle VEGF: 122 ± 12.9 pg/mL
[7]; listed as Dipy
  Muscle MCP-1: 43.8 ± 9.9 */$ pg/ml
[7]; listed as dipy
  Muscle MCP-1: 43.8 ± 9.9 pg/mL
[8]; RA+Dipy, RA 111.1±1.20%, Sham 100±1.26%
  Collagen I fibers (Picrosirius Red): 94.78±0.98%
[8]; RA+Dipy, RA 170.1±6.94%, Sham 100±3.97%
  Fat infiltrate in TA (Oil Red staining): 99.21±7.217%
[8]; arthritic mice + dipyridamole, acute model, arthritic 508±20, sham 1211±43
  Tibialis muscle fiber area: 1305±35 μm^2
[8]; healthy mice, dipy alone
  Fat infiltration across whole muscle (TA and EDL): able to decrease this fat infiltration
[9]; RA+Dipy, RA 77.98±10.81%, Sham 100±0%
  CK protein expression: 393.4±55.09%
[9]; arthritic mice + dipyridamole, arthritic 35±9%, Sham 100±1%
  A2B receptor expression in gastronemius: 160±14%
[9]; arthritic mice + dipyridamole, arthritic 53±7%, sham 100±1%
  AMPK phosphorylation in gastronemius: 152±5%
[9]; arthritic mice + dipyridamole, arthritic 60±7%, sham 100±1%
  MHC protein expression in gastronemius: 184±6%
[9]; arthritic mice + dipyridamole, arthritic 71±3%, Sham 100±1%
  A2A receptor expression in gastronemius: 123±6%
[9]; arthritic mice + dipyridamole, arthritic 151±13%, sham 100±1%
  Pax7 protein expression in gastronemius: 274±11%
[9]; arthritic mice + dipyridamole, arthritic 221±38%
  p21 protein expression: 64±15%
[9]; arthritic mice + dipyridamole, arthritic 392±25%
  p16 protein expression: 139±32%
[9]; healthy mice, dipy alone vs sham
  Pax7 and MHC protein expression in gastronemius: non-significant increase
[9]; [10]
  A2A receptor expression in gastronemius: 118.8±11.30%
  A2B receptor expression in gastronemius: 167.6±10.63%
  pAMPK expression in gastronemius: 194.2±5.2%
